Reference: PubChem BioAssay AID292 (DTP/NCI, 2004)
“And” between values parts separate entries of the source, which are not always exact repeats. Equal entries are not always repeated. Inconclusive results and toxic doses are left out.

Test system: B6C3F1 mice, ip Sarcoma M5076, median survival T/C
Experiment: NCI In Vivo Anticancer Drug Screen. Data for tumor model Sarcoma M5076 (intraperitoneal) in B6C3F1 mice
Details: endpoint: median survival time, higher = longer survival
In short: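 Mice carrying the transplanted tumour received compound treatment. Survival was recorded, and each value is the treated-group measurement divided by that of the vehicle-dosed control group.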

[1] = dose: 15.0 mg/kg/injection, schedule: Q04DX004 (ip), vehicle: saline with Tween-80
[2] = dose: 25.0 mg/kg/injection, schedule: Q04DX004 (ip), vehicle: saline with Tween-80
[3] = dose: 30.0 mg/kg/injection, schedule: Q04DX004 (ip), vehicle: saline with Tween-80
[4] = dose: 50.0 mg/kg/injection, schedule: Q04DX004 (ip), vehicle: saline with Tween-80
[5] = dose: 60.0 mg/kg/injection, schedule: Q04DX004 (ip), vehicle: saline with Tween-80
[6] = dose: 100.0 mg/kg/injection, schedule: Q04DX004 (ip), vehicle: saline with Tween-80
[7] = dose: 25.0 mg/kg/injection, schedule: Q04DX004 (ip), vehicle: Klucel (hydroxypropylcellulose) (HPC)
[8] = dose: 50.0 mg/kg/injection, schedule: Q04DX004 (ip), vehicle: saline
[9] = dose: 100.0 mg/kg/injection, schedule: Q04DX004 (ip), vehicle: saline
[10] = dose: 50.0 mg/kg/injection, schedule: Q04DX004 (ip), vehicle: Klucel (hydroxypropylcellulose) (HPC)
[11] = dose: 100.0 mg/kg/injection, schedule: Q04DX004 (ip), vehicle: Klucel (hydroxypropylcellulose) (HPC)
[12] = dose: 200.0 mg/kg/injection, schedule: Q04DX004 (ip), vehicle: Klucel (hydroxypropylcellulose) (HPC)
[13] = dose: 400.0 mg/kg/injection, schedule: Q04DX004 (ip), vehicle: Klucel (hydroxypropylcellulose) (HPC)

For `COc1c(C=O)c2c(c(OC)c1OC)-c1ccc(OC)c(=O)cc1[C@@H](NC(C)=O)CC2`, the T/C (dose: 3.75 mg/kg/injection, schedule: Q04DX004 (ip), vehicle: Klucel (hydroxypropylcellulose) (HPC)) was 118 % of control and the T/C (dose: 7.5 mg/kg/injection, schedule: Q04DX004 (ip), vehicle: Klucel (hydroxypropylcellulose) (HPC)) was 118 % of control.
In the case of `N#Cc1c(N)[nH]c2ccc(Sc3ccccc3)cc12`, the T/C (dose: 6.25 mg/kg/injection, schedule: Q04DX004 (ip), vehicle: saline with Tween-80) is reported as 101 % of control, the T/C (dose: 12.5 mg/kg/injection, schedule: Q04DX004 (ip), vehicle: saline with Tween-80) is reported as 112 % of control and the T/C [1] is reported as 108 % of control. For the same compound, the T/C [2] was 109 % of control, the T/C [3] was 97 % of control and the T/C (dose: 36.0 mg/kg/injection, schedule: Q04DX004 (ip), vehicle: saline with Tween-80) was 104 % of control. For the same compound, the T/C [4] was 114 % of control, the T/C [5] was 95 % of control and 104 % of control and the T/C [6] was 116 % of control. The T/C (dose: 120.0 mg/kg/injection, schedule: Q04DX004 (ip), vehicle: saline with Tween-80) was 110 % of control and the T/C (dose: 240.0 mg/kg/injection, schedule: Q04DX004 (ip), vehicle: saline with Tween-80) was 113 % of control.
With `CN1CCOc2c1cnn(CCO)c2=O` the T/C [2] was 105 % of control, the T/C [4] was 96 % of control and the T/C [6] was 94 % of control. For the same compound, the T/C (dose: 200.0 mg/kg/injection, schedule: Q04DX004 (ip), vehicle: saline with Tween-80) was 99 % of control and the T/C (dose: 400.0 mg/kg/injection, schedule: Q04DX004 (ip), vehicle: saline with Tween-80) was 99 % of control.
With `C=C(Cl)C(=NC(C)(C)C)Nc1ccccc1C` the T/C (dose: 3.0 mg/kg/injection, schedule: Q04DX004 (ip), vehicle: Klucel (hydroxypropylcellulose) (HPC)) was 98 % of control, the T/C (dose: 6.0 mg/kg/injection, schedule: Q04DX004 (ip), vehicle: Klucel (hydroxypropylcellulose) (HPC)) was 116 % of control and the T/C (dose: 6.25 mg/kg/injection, schedule: Q04DX004 (ip), vehicle: Klucel (hydroxypropylcellulose) (HPC)) was 108 % of control. The T/C (dose: 12.0 mg/kg/injection, schedule: Q04DX004 (ip), vehicle: Klucel (hydroxypropylcellulose) (HPC)) was 103 % of control, the T/C (dose: 24.0 mg/kg/injection, schedule: Q04DX004 (ip), vehicle: Klucel (hydroxypropylcellulose) (HPC)) was 98 % of control and the T/C [7] was 117 % of control. The T/C (dose: 48.0 mg/kg/injection, schedule: Q04DX004 (ip), vehicle: Klucel (hydroxypropylcellulose) (HPC)) was 104 % of control.
For `NCCCNCCCCNC(=O)C(O)NC(=O)CC(O)CCCCN=C(N)N` (centres undefined), the T/C [8] was 117 % of control and the T/C [9] was 115 % of control.
`CC1(C)C(=O)NC(=O)c2ccccc21` was tested, and the T/C [7] was 109 % of control.
With `Cn1cnc([N+](=O)[O-])c1SCC(=O)O` the T/C (dose: 75.0 mg/kg/injection, schedule: Q04DX004 (ip), vehicle: Klucel (hydroxypropylcellulose) (HPC)) was 92 % of control, the T/C (dose: 150.0 mg/kg/injection, schedule: Q04DX004 (ip), vehicle: Klucel (hydroxypropylcellulose) (HPC)) was 101 % of control and the T/C (dose: 300.0 mg/kg/injection, schedule: Q04DX004 (ip), vehicle: Klucel (hydroxypropylcellulose) (HPC)) was 98 % of control. For the same compound, the T/C (dose: 600.0 mg/kg/injection, schedule: Q04DX004 (ip), vehicle: Klucel (hydroxypropylcellulose) (HPC)) was 93 % of control and the T/C (dose: 1200.0 mg/kg/injection, schedule: Q04DX004 (ip), vehicle: Klucel (hydroxypropylcellulose) (HPC)) was 92 % of control.
`Nc1ccn(C2CC3[O][Sn]([c]4ccccc4)([c]4ccccc4)[O]CC3O2)c(=O)n1` (centres undefined) was tested, and the T/C (dose: 25.0 mg/kg/injection, schedule: Q04DX004 (ip), vehicle: distilled water + Tween-80) was 100 % of control, the T/C (dose: 50.0 mg/kg/injection, schedule: Q04DX004 (ip), vehicle: distilled water + Tween-80) was 100 % of control and the T/C (dose: 100.0 mg/kg/injection, schedule: Q04DX004 (ip), vehicle: distilled water + Tween-80) was 105 % of control. The T/C (dose: 200.0 mg/kg/injection, schedule: Q04DX004 (ip), vehicle: distilled water + Tween-80) was 100 % of control and the T/C (dose: 400.0 mg/kg/injection, schedule: Q04DX004 (ip), vehicle: distilled water + Tween-80) was 95 % of control.
`CN1C2CCC1C(Br)C(=O)C2` (centres undefined) was tested, and the T/C [8] was 101 % of control, the T/C [9] was 104 % of control and the T/C (dose: 200.0 mg/kg/injection, schedule: Q04DX004 (ip), vehicle: saline) was 103 % of control.
`CCOc1c2c(nn(C)c1=O)Oc1ccccc1N2CCCN1CCOCC1` was tested, and the T/C (dose: 7.5 mg/kg/injection, schedule: Q04DX004 (ip), vehicle: saline with Tween-80) was 92 % of control, the T/C [1] was 106 % of control and the T/C [3] was 113 % of control. The T/C [5] was 97 % of control.
`CC[C@@]1(O)C(=O)OCc2c1cc1n(c2=O)Cc2cc3c(N)cccc3nc2-1` was tested, and the T/C (dose: 0.25 mg/kg/injection, schedule: Q04DX004 (ip), vehicle: saline with Tween-80) was 121 % of control, the T/C (dose: 1.0 mg/kg/injection, schedule: Q04DX004 (ip), vehicle: saline with Tween-80) was 164 % of control and 168 % of control and the T/C (dose: 2.0 mg/kg/injection, schedule: Q04DX004 (ip), vehicle: saline with Tween-80) was 208 % of control. The T/C (dose: 4.0 mg/kg/injection, schedule: Q04DX004 (ip), vehicle: saline with Tween-80) was 177 % of control.
For `COc1cccc(C2NC(=S)NC(=O)C2C#N)c1` (centres undefined), the T/C [10] was 99 % of control, the T/C [11] was 99 % of control and the T/C [12] was 95 % of control. For the same compound, the T/C [13] was 97 % of control.
In the case of `CC1(C)Nc2cc3c(cc2-n2cccc21)oc1ccccc13`, the T/C (dose: 150.0 mg/kg/injection, schedule: Q04DX004 (ip), vehicle: DMSO) is reported as 101 % of control, the T/C (dose: 300.0 mg/kg/injection, schedule: Q04DX004 (ip), vehicle: DMSO) is reported as 100 % of control and the T/C (dose: 600.0 mg/kg/injection, schedule: Q04DX004 (ip), vehicle: DMSO) is reported as 101 % of control. The T/C (dose: 1200.0 mg/kg/injection, schedule: Q04DX004 (ip), vehicle: DMSO) was 97 % of control.
`CCOC(=O)/C=C/C(=O)N1CCN(C(=O)/C=C/C(=O)OCC)C(C)C1` (centres undefined) was tested, and the T/C [7] was 98 % of control, the T/C [10] was 107 % of control and the T/C [11] was 98 % of control. The T/C [12] was 108 % of control and the T/C [13] was 100 % of control.
`O=C(Nc1cccc(NC(=O)c2nn[nH]n2)n1)c1nn[nH]n1` was tested, and the T/C [10] was 99 % of control, the T/C [11] was 102 % of control and the T/C [12] was 94 % of control.
In the case of `COC1CC(C)C(OC)c2cc(O)cc(c2O)NC(=O)/C(C)=C/C=C\C(C)C(OC(N)=O)/C(C)=C\C(C)C1OC` (centres undefined), the T/C (dose: 0.63 mg/kg/injection, schedule: Q01DX009 (ip), vehicle: saline + alcohol) is reported as 115 % of control, the T/C (dose: 1.25 mg/kg/injection, schedule: Q01DX009 (ip), vehicle: saline + alcohol) is reported as 111 % of control and the T/C (dose: 1.8 mg/kg/injection, schedule: Q01DX009 (ip), vehicle: saline + alcohol) is reported as 122 % of control. For the same compound, the T/C (dose: 2.5 mg/kg/injection, schedule: Q01DX009 (ip), vehicle: saline + alcohol) was 107 % of control.
`[Na+]` was tested, and the T/C (dose: 50.0 mg/kg/injection, schedule: Q04DX004 (ip), vehicle: water) was 94 % of control, the T/C (dose: 100.0 mg/kg/injection, schedule: Q04DX004 (ip), vehicle: water) was 97 % of control and the T/C (dose: 200.0 mg/kg/injection, schedule: Q04DX004 (ip), vehicle: water) was 101 % of control. The T/C (dose: 400.0 mg/kg/injection, schedule: Q04DX004 (ip), vehicle: water) was 88 % of control and the T/C (dose: 800.0 mg/kg/injection, schedule: Q04DX004 (ip), vehicle: water) was 98 % of control.
With `Cc1ncc(CO)c(CO)c1OCC(O)CN1CCN(C(=O)c2ccccc2)CC1` (centres undefined) the T/C (dose: 25.0 mg/kg/injection, schedule: Q04DX004 (ip), vehicle: saline) was 103 % of control, the T/C [8] was 103 % of control and the T/C [9] was 99 % of control.
`CN1C(=O)C(=O)N(Cc2ccc(CN3C(=O)C(=O)N(C)C3=O)cc2)C1=O` was tested, and the T/C [10] was 98 % of control, the T/C [11] was 94 % of control and the T/C [12] was 115 % of control. For the same compound, the T/C [13] was 92 % of control.
`Cc1ccc(Nc2nnc(CSc3ccc(Cl)cc3)s2)c(S(=O)(=O)O)c1` was tested, and the T/C (dose: 37.5 mg/kg/injection, schedule: Q04DX004 (ip), vehicle: saline with Tween-80) was 99 % of control, the T/C (dose: 75.0 mg/kg/injection, schedule: Q04DX004 (ip), vehicle: saline with Tween-80) was 87 % of control and the T/C (dose: 150.0 mg/kg/injection, schedule: Q04DX004 (ip), vehicle: saline with Tween-80) was 91 % of control.
